We go through 2 compounds from publication PMC7738880, “Identification of novel CD44v6-binding peptides that block CD44v6 and deliver a pro-apoptotic peptide to tumors to inhibit tumor growth and metastasis in mice” (Theranostics, 2021).

One assay concerns c-Met in MDA-MB231 cells. Nature of the assay: HGF-induced c-Met internalization (confocal microscopy). It counts as cell-based, human. The settings on record: peptide pre-treatment 10 min, HGF 25 ng/mL 30 or 60 min. How it is done:
To examine the internalization of CD44v6, 1 × 10^5 MDA-MB231 cells were seeded in each well of an 8-well chamber slide and cultured for 24 h. Next, the cells were incubated with a fresh culture medium containing FITC-labeled peptides (10 μM) at 37 °C for 10, 30, and 60 min and then stained with an anti-human CD44v6 mouse monoclonal antibody (clone no. VFF-7; Santa Cruz Biotechnology). The cells were then incubated with an Alexa Fluor 594-labeled goat anti-mouse IgG secondary antibody (Merck). To examine the internalization of c-Met, cells were incubated with recombinant human HGF at 25 ng/mL (R&D Systems, Minneapolis, MN) for 30 or 60 min with or without pre-treatment with peptides (20 µM) for 10 min. After incubation, the cells were stained with an anti-Met rabbit polyclonal antibody (clone no. C-28, 1:100 dilution; Santa Cruz Biotechnology). The cells were then incubated with an Alexa Fluor 594-labeled goat anti-rabbit IgG secondary antibody (Merck). For nuclear staining, the cells were incubated with DAPI and the ProLong antifade reagent before observation under a confocal microscope (Zeiss).

A further assay concerns Panc-1 cells. Nature of the assay: Saturation cell binding assay, Panc-1. Also noted: species or system human. The settings on record: biotin-labeled peptide 0-256 µM, 4 °C, 1 h. How it is done: Supplementary Information
Supplementary Materials and Methods
Saturation binding assays to determine the cellular binding affinities of peptides Cells (5 × 10^3 cells per well in a 96-well plate) were incubated with 1% bovine serum albumin (BSA) for 30 min and with different concentrations of biotin-labeled peptides (0, 2, 4, 8, 16, 32, 64, 128, and 256 µM) at 4 °C for 1 h. After washing, the cells were incubated with horseradish peroxidase-conjugated neutravidin (1:10,000 dilution; ThermoFisher Scientific, Waltham, MA) for 30 min at room temperature. Enzymatic activity was detected using a 3,3ʹ,5,5ʹ-tetramethylbenzidine substrate (ThermoFisher Scientific), and the reaction was stopped using 2 M sulfuric acid. The absorbance at 450 nm was measured in each well using a microplate reader (Tecan, Mannedorf, Switzerland). The KD values were then calculated using GraphPad Prism 6 software (GraphPad Inc., La Jolla, CA). […]
10 µM biotin-labeled CD44v6-binding peptides at 4 °C for 1 h. […]
Scientific) for 30 min at room temperature. […]

The subject of assay [1] is CD44v6-knockdown MDA-MB231 cells. Nature of the assay: Peptide binding to CD44v6-knockdown cells (flow cytometry). It counts as cell-based, human. The settings on record: FITC-labeled peptide 25 µM, MDA-MB231, siRNA knockdown 24 h. On the procedure:
Cells (1 × 10^5 cells) were harvested and suspended in culture medium containing 1% BSA for 1 h, followed by an incubation with FITC-labeled peptides (25 µM) at 4 °C for 1 h. After washing, the cells were analyzed using a FACSCalibur flow cytometer (BD, Franklin Lakes, NJ). For competition assays, cells were incubated with 5 µg/mL of an anti-human CD44v6 mouse monoclonal antibody (clone no. VFF-18, 1:100 dilution; Abcam, Cambridge, MA) and anti-human CD44 monoclonal antibody (clone no. 156-3C11, 1:100 dilution; ThermoFisher Scientific) for 1 h to compete with peptide binding, followed by an incubation with FITC-labeled peptides (10 µM) before analysis on a flow cytometer (BD). In another set of assays, cells were incubated with peptides (50 µM) for 1 h to compete with antibody binding, followed by an incubation with 5 µg/mL of the anti-human CD44v6 mouse monoclonal antibody for 1 h, The cells were then incubated with an Alexa Fluor 488-labeled goat anti-mouse IgG secondary antibody (Merck) before analysis on a flow cytometer (BD).
CD44v6 gene expression was knocked down using CD44v6 small interfering RNAs (siRNAs) as previously described. Two CD44v6-specific siRNAs (v6-1: 5ʹ-AGU ACA ACG GAA ATT-3ʹ and v6-2: 5ʹ-GGA UAU CGC CAAACA CCC ATT-3ʹ) were synthesized by Bioneer (Daejeon, Korea). Control siRNA (5ʹ-CUA CGC CAA UUU CGU (dTdT)-3ʹ) were purchased from Bioneer. […]
On the technique in general: Flow cytometry measures light scatter and fluorescence of single cells or particles in a stream.

Residues, ends and D or L forms follow the SMILES beside them.

A word on the Kd: it is a measure of binding affinity in units of concentration. A lower Kd goes with higher affinity. `CC(C)C[C@H](NC(=O)[C@H](CCC(N)=O)NC(=O)[C@H](Cc1c[nH]c2ccccc12)NC(=O)[C@H](CCC(=O)O)NC(=O)[C@H](CC(N)=O)NC(=O)[C@@H](N)CS)C(=O)N[C@@H](CCCCN)C(=O)N[C@@H](CO)C(=O)N[C@@H](CS)C(=O)O` [NEW] (H-CNEWQLKSC-OH; N-terminus and C-terminus assumed): in the assay with c-Met in MDA-MB231 cells, the “HGF-induced internalization of c-Met” value is on record as “inhibited”. In addition, the Kd with Panc-1 cells was found to be 7 ± 3 µM. In assay [1], the “decrease of cellular binding to CD44v6-knockdown cells compared with wild-type cells” value was 6-7 fold.
As to `CC[C@H](C)[C@H](NC(=O)[C@@H](NC(=O)[C@H](CC(N)=O)NC(=O)[C@H](CC(C)C)NC(=O)[C@H](CC(N)=O)NC(=O)[C@@H](N)CS)[C@@H](C)O)C(=O)N[C@@H](CC(=O)O)C(=O)N[C@H](C(=O)N[C@@H](CS)C(=O)O)[C@@H](C)O` [NLN] (H-CNLNTIDTC-OH; N-terminus and C-terminus assumed), the “HGF-induced internalization of c-Met” value in the assay on c-Met in MDA-MB231 cells is given as “inhibited”. In addition, in the assay with Panc-1 cells, binding was put at a Kd of 8 ± 5 µM. Further, the “decrease of cellular binding to CD44v6-knockdown cells compared with wild-type cells” value in assay [1] was 6-7 fold.
